Results from patent US11732143B2, “Identification and characterization of novel corrosion inhibitor molecules” (ECOLAB USA INC., priority 2015, dated 2023).

Test system: live bacteria
Test: Biocide efficiency, fluorescence detection of ATP, percentage kill / viable bacteria
Type: cell-based
Settings: for biocidal efficiency in conjunction with biocide 4: 120 ppm corrosion inhibitor + 100 ppm biocide 4 (glutaraldehyde); for biocidal efficiency of the corrosion inhibitor by itself (viable microorganisms): 120 ppm corrosion inhibitor alone
Method: Biocidal efficiency of the biocide and biocide in conjunction with corrosion inhibitors were analyzed using fluorescence to indirectly detect the amount of ATP in a given sample. ATP provides a direct correlation to live bacteria (1fg of ATP=1 cell). Through a standard curve, it is the possible to translate the amount of ATP in a given sample to the number of cells/mL in a given sample. Percentage kill was calculated by normalizing the detected bacterial numbers in a biocide or a biocide and corrosion inhibitor treated sample to untreated sample.

Substance | biocidal efficiency in conjunction with biocide 4 | biocidal efficiency of the corrosion inhibitor by itself (viable microorganisms)
Cocoamphodiproprionate sodium salt | modest increase in the biocidal properties of biocide 4 | not efficient in reducing the number of viable microorganisms by itself
2-hydroxylethyl-N-methylbutane-1-sulphonamide | does not have any biocidal properties | does not have any biocidal properties
